# Test system: HepaRG cells
# Assay: Cytotoxicity MTT assay in HepaRG cells
# Format: cell-based, human
# Details: 48 h
# Experimental: (§1) Additionally, the antimicrobial compounds were analyzed for cytotoxicity. […] We utilized the standard MTT assay (Promega CellTiter 96) and GraphPad Prism 7 software to determine EC50 values for each analogue. Briefly, 20,000 HepG2 cells in 200 μl of the ATCC recommended media were seeded in each well of a 96-well plate with a moisture barrier created in the outermost wells. The cells were allowed to attach overnight at 37° C., and then observed under phase contrast microscopy for proper morphological characteristics. If cells appeared healthy and attached, test compounds were added in 7 concentrations from […] (n=3) from freshly prepared DMSO stock plates. […] Once incubations were complete, the spectrophotometric absorbance of the samples was measured at a wavelength of 595 nm. […] For the HepaRG assay, NoSpin HepaRG™ cells (Lonza, cat #NSHPRG) were thawed and plated with 20,000 cells per well. They were allowed to attach for 4 h (optimal DME profile per Lonza's testing) before dosing following the identical protocol as above.
row,Structure (SMILES),Cytotoxicity HepaRG EC50 [µg/mL]
1,"Oc1ccc(Sc2c[nH]c3ccccc23)cc1 [Compound 156I, 4-((1H-indol-3-yl)thio)phenol]",>20
2,"Nc1ccccc1Sc1c[nH]c2ccc(Br)cc12 [Compound 174M, 2-((5-bromo-1H-indol-3-yl)thio)aniline]",85
3,"Brc1ccc(Sc2c[nH]c3ccccc23)cc1 [Compound 156K, 3-((4-bromophenyl)thio)-1H-indole]",32

# Test system: branched chain amino acid synthesis pathway (ILVB)
# Assay: RNA sequencing / transcriptomic and metabolic mechanism of action studies
# Details: not given
row,Structure (SMILES),mechanism of action from transcriptomic and metabolic studies
1,"Nc1ccccc1Sc1c[nH]c2ccc(Br)cc12 [Compound 174M, 2-((5-bromo-1H-indol-3-yl)thio)aniline]",branched chain amino acid biosynthesis inhibition
2,"Brc1ccc2[nH]cc(Sc3ccccc3Br)c2c1 [Compound 174I, 5-bromo-3-((2-bromophenyl)thio)-1H-indole]",branched chain amino acid biosynthesis inhibition

# Test system: S. aureus cell wall synthesis
# Assay: Macromolecular synthesis assay (glucosamine incorporation into cell wall)
# Format: cell-based
# Details: dose-response, FIG. 2A-2B
row,Structure (SMILES),cell wall synthesis inhibition (glucosamine incorporation)
1,"CN[C@H](CC(C)C)C(=O)N[C@H]1C(=O)N[C@@H](CC(N)=O)C(=O)N[C@H]2C(=O)N[C@H]3C(=O)N[C@H](C(=O)N[C@H](C(=O)O)c4cc(O)cc(O)c4-c4cc3ccc4O)[C@H](O)c3ccc(c(Cl)c3)Oc3cc2cc(c3O[C@@H]2O[C@H](CO)[C@@H](O)[C@H](O)[C@H]2O[C@H]2C[C@](C)(N)[C@H](O)[C@H](C)O2)Oc2ccc(cc2Cl)[C@H]1O [vancomycin, reference compound]",increasingly inhibits glucosamine from incorporating into a cell wall
2,"Brc1ccc2[nH]cc(Sc3ccccc3Br)c2c1 [Compound 174I, 5-bromo-3-((2-bromophenyl)thio)-1H-indole]",substantial cell wall synthesis inhibition

# Test system: Candida glabrata
# Assay: MIC/MFC against Candida glabrata strains
# Format: cell-based
# Details: Nakaseomyces glabratus; #584
row,Structure (SMILES),MIC [µg/mL]
1,"Clc1c(Cl)c(Cl)c(Sc2c[nH]c3ccc(Br)cc23)c(Cl)c1Cl [Compound 174AD, 5-bromo-3-((perchlorophenyl)thio)-1H-indole]",> 50

# Test system: B. subtilis / cytotoxicity EC50
# Assay: Selectivity index (SI) using B. subtilis MICs
# Details: not given
# Experimental: as §1
row,Structure (SMILES),SI (selectivity index)
1,"Fc1ccc(Sc2c[nH]c3ccc(Br)cc23)cc1 [Compound 174P, 5-bromo-3-((4-fluorophenyl)thio)-1H-indole]",24.6
2,"Clc1ccc2[nH]cc(Sc3ccc(Br)cc3)c2c1 [Compound 174C, 3-((4-bromophenyl)thio)-5-chloro-1H-indole]",16.3
3,"CCc1ccccc1Sc1c[nH]c2ccc(C(F)(F)F)cc12 [Compound 177G, 3-((2-ethylphenyl)thio)-5-(trifluoromethyl)-1H-indole]",18.9
4,"COc1ccc2[nH]cc(Sc3ccc(Br)cc3)c2c1 [Compound 172E, 3-((4-bromophenyl)thio)-5-methoxy-1H-indole]",14.9
5,"Fc1ccc2[nH]cc(Sc3ccc(Br)cc3)c2c1 [Compound 174E, 3-((4-bromophenyl)thio)-5-fluoro-1H-indole]",14.2
6,"CCc1ccccc1Sc1c(CO)[nH]c2ccc(C(F)(F)F)cc12 [Compound 177I, (3-((2-ethylphenyl)thio)-5-(trifluoromethyl)-1H-indol-2-yl)methanol]",10.0
7,"Fc1ccccc1Sc1c[nH]c2ccc(C(F)(F)F)cc12 [Compound 177D, 3-((2-fluorophenyl)thio)-5-(trifluoromethyl)-1H-indole]",17.4
8,"Fc1ccc2[nH]cc(Sc3ccccc3Br)c2c1 [Compound 177E, 3-((2-bromophenyl)thio)-5-fluoro-1H-indole]",20.3
9,"Oc1ccccc1Sc1c[nH]c2ccc(C(F)(F)F)cc12 [Compound 177A, 2-((5-(trifluoromethyl)-1H-indol-3-yl)thio)phenol]",61.8
10,"Clc1ccc(Sc2c[nH]c3ccc(Br)cc23)c(Cl)c1 [Compound 174V, 5-bromo-3-((2,4-dichlorophenyl)thio)-1H-indole]",19.8
11,"FC(F)(F)c1ccc2[nH]cc(Sc3ccccc3C(F)(F)F)c2c1 [Compound 177F, 5-(trifluoromethyl)-3-((2-(trifluoromethyl)phenyl)thio)-1H-indole]",19.1
12,"Oc1ccc(Sc2c[nH]c3ccc(C(F)(F)F)cc23)cc1 [Compound 177B, 4-((5-(trifluoromethyl)-1H-indol-3-yl)thio)phenol]",17.8
13,"Nc1ccccc1Sc1c[nH]c2ccc(C(F)(F)F)cc12 [Compound 177C, 2-((5-(trifluoromethyl)-1H-indol-3-yl)thio)aniline]",123.6
14,"Clc1ccc(Sc2c[nH]c3ccc(Br)cc23)cc1 [Compound 174J, 5-bromo-3-((4-chlorophenyl)thio)-1H-indole]",16.2
15,"OCc1[nH]c2ccc(Br)cc2c1Sc1ccccc1Br [Compound 177H, (5-bromo-3-((2-bromophenyl)thio)-1H-indol-2-yl)methanol]",20.4

# Test system: not listed separately
# Assay: MIC with and without 2-ketobutyrate (synergy)
# Format: cell-based
# Details: with 200 μg/mL 2-ketobutyrate
row,Structure (SMILES),MIC with 200 μg/mL 2-ketobutyrate
1,"Nc1ccccc1Sc1c[nH]c2ccc(Br)cc12 [Compound 174M, 2-((5-bromo-1H-indol-3-yl)thio)aniline]",0.781

# Same assay, conditions: with 800 μg/mL 2-ketobutyrate
row,Structure (SMILES),MIC with 800 μg/mL 2-ketobutyrate
1,"Nc1ccccc1Sc1c[nH]c2ccc(Br)cc12 [Compound 174M, 2-((5-bromo-1H-indol-3-yl)thio)aniline]",less than 0.39

# — patent US20250382269A1 (CFD Research Corporation, priority 2019, published 2025)
